Where two headings read alike, the source gives them in different places. Square brackets hold non-standard residues; d marks the D form. Peptide text beside a SMILES is read from it.
Columns and labels:
[1] = target: T1, CD80-Ig (Homo sapiens, UniProt P33681); experiment: Direct kinetic analysis of CD28 peptide binding to immobilized CD80-Ig by surface plasmon resonance (BIACORE); details: for maximum response units obtained for binding to CD80-Ig: SPR direct binding; for kd: direct binding; for kon: pH 7.4, direct binding, read-out: ka
T1 construct: extracellular domain of CD80 fused with the constant region of mouse IgG1 heavy chain
Protocol: Binding experiments were performed by surface plasmon resonance (SPR) on an instrument sold under the trademark BIACORE™ from Pharmacia Biosensor (Uppasala, Sweden).
CD80-Ig (extracellular domain of CD80 fused with the constant region of mouse IgG1 heavy chain) at 35 μg/ml in 10 mM sodium acetate buffer, pH 4.2, was coupled to a research grade CM 5 sensor chip using a standard amine coupling procedure with the following modifications (38). To reduce the immobilization level of the ligand, the surface was activated for 3 (instead of 7) minutes with N-hydroxysuccinamide and […]. […] Following coupling, noncovalently bound ligand was removed by washing twice with 5 mM NaOH.
The analytes were also injected at the same concentration and injection times over an empty flow cell with nothing immobilized.
Data analysis was performed with BIAEVALUATION™ software version 2.1(Pharmacia Biosensor AB). […] Prior to kinetic analysis, data were adjusted to zero baseline level by subtracting the background responses obtained by injection of the analytes through a control flow cell with no ligand immobilized. First, the dissociation rate constant, kd, (units: s^−1) was determined, by fitting experimental data from the buffer flow part of the sensogram to the equation R(t)=R1*e^−kd*(t^0^−t^1^) (1) where t0 is the injection time, R1 is the response level at the start of dissociation time t1 and kd is the dissociation rate constant.
The kd value obtained was used as a constant during the analysis of the injection phase data. Binding data above the noise level was selected by converting the sensogram to a plot of the logarithm of the binding rate vs time (dR/dt vs. time). The ka was determined by nonlinear curve fitting of the following equation R(t)=Req*{1−e^−(k^a^*C+k^d^)*(t) (2) where R(t) is the response at time t, Req is the steady state response level, ka is the association rate constant (units: M^−1s^−1), kd is the dissociation rate constant and C is the concentration of the injected peptide analyte. An offset was added to account for the refractive index differences between the analyte and the running buffer.
After analyzing sensograms obtained from injections of increasing concentrations of peptide analytes or CD28-Ig, the experimental data was analyzed using the BIAsimulation software 2.1. A plot of the logarithm of (dR/dt) against time was calculated from the sensograms, and then the slopes at different concentrations were plotted against the concentrations of the peptide analyte. Different angles obtained of the linear lines represent the variation of affinities, which gives the association rate constant (ka) from the equation ln dR/dt=ln(kaCR max)−KaC+kd)t (4) where dR/dt is the rate of change of the SPR signal, C is the concentration of the analyte, Rmax is the maximum analyte binding capacity in RU and R is the SPR signal in RU at time t. The dissociation rate constant is obtained from the equation Kd=kd/ka (5)

[2] = test system: CD4+ LNC from Vα4/Vβ8.2 TCR transgenic mice; format: cell-based, mouse; details: CD4+ LNC and spleen cells, NAc 1-11 10 μg/ml, all concentrations used
Protocol: The in vitro effect of varying concentration of the CD 28 peptide mimetics on CD4+ lymph node cells and spleen cells from transgenic mice bearing the Vα 4 Vβ8.2 TCR specific for MBP Ac 1-11 was determined.
CD4+ T cells were purified from pooled peripheral lymph nodes (inguinal, axillary, brachial, cervical, popliteal), and mesenteric lymph nodes and spleen of 6–8 wk old Vα4/Vβ8.2 TCR transgenic mice by positive selection. Single cell suspensions were prepared by lympholyte M gradient, washed, counted and incubated with magnetic bead conjugated anti-mouse CD4 (L3T4) (Miltenyi Biotech Corporation) followed by positive selection using magnetic selection columns. Purity of the CD4^+ cells was greater than 90% as assessed by staining with FITC labeled anti-mouseVβ8.2 mAb (Pharmingen). During the selection process, T cells maintain a naïve phenotype with no evidence for T cell activation as measured by proliferation in culture. Purified CD4+ T-cells (5×10^4 cells/well) were cultured together with wild type splenocytes from B10.PL mice as APC's (10^5 cells/well) in RPMI 1640 containing 10% FCS, 25 mM HEPES, 2 mM L-glutamine, 50 U/ml penicillin, 50 μg/ml streptomycin, and 5×10–5 M 2-ME in round-bottom 96-well plates and MBP (40 μg/ml) or MBP NAc1-11 (10 μg/ml) or media only in the presence or absence of synthetic CD28 peptide analogues at different concentrations in triplicate wells for 72 h, including a final 18-h pulse with [^3H] thymidine. Cultures were harvested onto glass-fiber mats using a Skatron harvester (Skatron, Sterling, Va.) and were counted by liquid scintillation on LKB Betaplate (LKB, Rockville, Md.). The means of the triplicate were determined and the results are expressed as delta cpm (mean counts per minute of cultures with Ag-mean counts per minute of cultures with medium alone)±SD.

[3] = test system: lymph node cells of MBP-primed mice; experiment: IL-2 ELISPOT of draining lymph node cells from peptide-treated MBP-immunized mice; format: in vivo, mouse; details: mice treated on day 0 of immunization, ELISPOT on restimulation
Protocol: Ninety-six well unifilter plates (Polyfiltronics, Rockland, Md.) were coated overnight at 4° C. with rat anti-mouse IL-2 (Clone JES6-1A12) (Pharmingen, Calif.) at 4 μg/ml. The plates were then washed 4× with sterile PBS and blocked with 1% BSA in DMEM for 2 h at room temperature. Subsequently, isolated single cell suspensions of CD4+ LNC (5×10^6 cells/ml) and splenocytes (10×10^6 cells/ml) were added with the antigens and CD28 peptides under the conditions as specified for the proliferation assays. After 24 h of culture in the incubator, the cells were removed by washing 3× with PBS and 4× with PBS containing Tween (1:2000) (PBST). Then biotinylated anti mouse-IL-2 (Clone JES6-5H4) (Pharmingen, Calif.) 2 μg/ml was added and incubated at 4° C. overnight. After washing 3× with PBST and 3× with PBS, goat anti-biotin antibody conjugated to alkaline phosphatase (Vector Laboratories Inc, Burlingame, Calif.) diluted to 1:1000 in PBST containing 1% BSA was added and incubated for 2 h at room temperature. The spots were visualized by adding BCIP/NBT phosphatase substrate (Kirkeguard & Perry Laboratories, Gaithesburg, Md.). Image analysis of ELISA spot assays was performed on a Series 1 Immunospot Image Analyzer (Autoimmun Diagnostika (US) Inc.) customized for analyzing ELISA spots to meet objective criteria for size, chromatic density, shape and color.
MBP reactive T cells that induce EAE are known to display a Th1 phenotype secreting the proinflammatory cytokines IL-2, […] and TNF-β (36. Kay, B. K., M. P. Williamson, and M. Sudol. 2000. Faseb J 14, no. 2:231). ELISPOT assay was used to assess in vitro cytokine production by draining lymph node cells and splenocytes upon restimulation from in vivo MBP-primed T cells. Mice were treated as described in Example 3, on day 0 of immunization.

T1 sequence (P33681 35-242 limits assumed, other chains not shown): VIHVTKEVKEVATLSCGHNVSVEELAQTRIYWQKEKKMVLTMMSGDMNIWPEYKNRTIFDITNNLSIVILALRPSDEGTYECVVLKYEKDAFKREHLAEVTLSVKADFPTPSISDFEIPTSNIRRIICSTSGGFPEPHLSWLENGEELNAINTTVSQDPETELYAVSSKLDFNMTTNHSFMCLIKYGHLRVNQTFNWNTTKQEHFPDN

Structure (SMILES) | maximum response units obtained for binding to CD80-Ig [1] [RU] | kd ([1]; C 1.50E+03 nM) [s⁻¹] | kd ([1]; C 3.00E+03 nM) [s⁻¹] | kd ([1]; C 3.75E+02 nM) [s⁻¹] | kd ([1]; C 6.00E+03 nM) [s⁻¹] | kd ([1]; C 7.50E+02 nM) [s⁻¹] | kon ([1]; C 1.50E+03 nM) [M⁻¹ s⁻¹] | kon ([1]; C 3.00E+03 nM) [M⁻¹ s⁻¹] | kon ([1]; C 3.75E+02 nM) [M⁻¹ s⁻¹] | kon ([1]; C 6.00E+03 nM) [M⁻¹ s⁻¹] | kon ([1]; C 7.50E+02 nM) [M⁻¹ s⁻¹] | proliferative response / inhibition of T cell proliferation (in words) [2] | frequency of IL-2 secreting lymph node cells [3] | kd ([1]; C 1.00E+03 nM) [s⁻¹] | kon ([1]; C 1.00E+03 nM) [M⁻¹ s⁻¹]
CC[C@H](C)[C@H](NC(=O)[C@@H](NC(=O)CNC(=O)[C@H](CC(N)=O)NC(=O)[C@H](CO)NC(=O)[C@H](CCCNC(=N)N)NC(=O)[C@H](CCC(=O)O)NC(=O)[C@H](CC(N)=O)NC(=O)[C@H](CC(=O)O)NC(=O)[C@H](CC(C)C)NC(=O)[C@H](Cc1ccc(O)cc1)NC(=O)[C@@H]1CCCN1C(=O)[C@@H]1CCCN1C(=O)[C@@H]1CCCN1C(=O)[C@H](Cc1ccc(O)cc1)NC(=O)[C@H](CCSC)NC(=O)[C@H](Cc1ccccc1)NC(=O)[C@H](CCC(=O)O)NC(=O)[C@@H](NC(=O)[C@H](CCCCN)NC(C)=O)[C@@H](C)CC)[C@@H](C)O)C(N)=O [EL CD28] (Ac-KIEFMYPPPYLDNERSNGTI-NH2) | 667.5 | 0.242 | 0.214 | 0.399 | 0.273 | 0.274 | 115000 | 137000 | 246000 | 111000 | 110000 | significantly less | 2776+/−53.5 |  | 
CC[C@@H](C)[C@@H](NC(C)=O)C(=O)N[C@@H](C(=O)NCC(=O)N[C@H](CC(N)=O)C(=O)N[C@H](CO)C(=O)N[C@H](CCCNC(=N)N)C(=O)N[C@H](CCC(=O)O)C(=O)N[C@H](CC(N)=O)C(=O)N[C@H](CC(=O)O)C(=O)N[C@H](CC(C)C)C(=O)N[C@H](Cc1ccc(O)cc1)C(=O)N1CCC[C@@H]1C(=O)N1CCC[C@@H]1C(=O)N1CCC[C@@H]1C(=O)N[C@H](Cc1ccc(O)cc1)C(=O)N[C@H](CCSC)C(=O)N[C@H](Cc1ccccc1)C(=O)N[C@H](CCC(=O)O)C(=O)N[C@@H](C(=O)N[C@H](CCCCN)C(N)=O)[C@H](C)CC)[C@H](C)O [RI CD28] (Ac-[dI][dT]G[dN][dS][dR][dE][dN][dD][dL][dY][dP][dP][dP][dY][dM][dF][dE][dI][dK]-NH2) | 444.2 | 0.183 | 0.146 |  | 0.228 |  | 141000 | 122000 |  | 112000 |  | significantly less | 1753+/−37.7 | 0.205 | 171000

— patent US7220822B2, “CD28 mimetics for blocking T cell mediated immune reactions” (The Ohio State University, priority 2000, dated 2007)
